Measurements as given in patent USRE47885E1, “Use of cannabidiol prodrugs in pharmaceutical compositions” (Zynerba Pharmaceuticals, Inc., priority 2009, dated 2020).

Legend:
[1] = In vitro diffusion study through microneedle-treated full thickness Yucatan pig skin (flow-through diffusion cell); format: in vitro ADME; conditions: ALL00179 100% ddH2O donor solution, end of 48 h diffusion study
Excerpt: The purpose of the diffusion study was to determine whether microneedle (MN) treated skin would allow the rapid permeation of a water-soluble prodrug of CBD (ALL00179) compared to CBD.
Briefly, full thickness Yucatan pig (YP) skin was used to perform the microneedle studies. The average thickness of the YP skin was approximately 1.0±0.1 mm. A PermeGear flow-through (In-Line, Hellertown, Pa.) diffusion cell system was used for the skin permeation studies. One hundred microneedle insertions were made into the skin before mounting in the flow-through diffusion cell by treating the skin 20 times with an array containing 5 microneedles. Each cell was charged with 250 μl of either 318 mM CBD (n=4) or ALL00179 (n=5) and occluded with rubber stoppers. Ten percent ethanol in water was used as a receiver solution. Samples were collected at six-hour intervals for a total of 48 hours. (See FIG. 1 for the permeation profile.)

[2] = Chemical stability of ALL00179 in 100% ddH2O donor solution; format: physicochemical; conditions: for purity level after 72 hr: ALL00179 after 72 hr in ddH7O at RT; for initial purity (composition of ALL00179 sample): ALL00179 for 100% ddH2O donor solution
Protocol: ALL00179 was placed in 100% ddH2O donor solution to check chemical stability. The initial purity of ALL00179 was 94.7% ALL00179, 5.3% ALL00180, and 0% CBD. After 72 hr in ddH7O at RT, the purity level was determined to be 86.8% ALL00179, 13.2% ALL00180 and 0% CBD.

[3] = Previous studies: permeation through intact skin (non-MN treated, 100% ddH2O donor solution); format: in vitro ADME
Protocol: Likewise, short lag times were observed throughout the study for the ALL00179-treated skin. […] In this study, the total amount of CBD delivered from a 25 mg ALL00179-containing donor solution was 0.2±0.1 mg total CBD equivalents in the skin and 1.0±0.2 mg total CBD equivalents in the receiver solution after 48 hr. This accounts for approximately 4.8% of the total ALL00179 in the donor solution.

[4] = format: in vitro ADME; conditions: ALL00179 added to human plasma; for Percent Prodrug and CBD at time (min) 0*: 0 min (approximately 1 minute of mixing and withdrawal); for Percent Prodrug and CBD at time (min) 5: 5 min; for Percent Prodrug and CBD at time (min) 10: 10 min; for Percent Prodrug and CBD at time (min) 20: 20 min; for Percent Prodrug and CBD at time (min) 30: 30 min; for Percent Prodrug and CBD at time (min) 60: 60 min; for Percent Prodrug and CBD at time (min) 120: 120 min
Protocol: Stability of the prodrug in human plasma was performed to monitor the conversion of ALL00179 to the monosubstituted form, ALL00180, and CBD. The molecular structure of ALL00180 and CBD are shown below: […]

[5] = Permeation from an optimized gel system of cannabidiol through intact dermatomed human skin; format: in vitro ADME; conditions: optimized gel system of cannabidiol (2.5% w/w), dosed every 12 hr
Excerpt: As a comparison, permeation from an optimized gel system of cannabidiol (2.5% w/w) through intact dermatomed human skin, dosed every 12 hr, gave a flux of 5.2 nmol/cm^2/h. The total CBD flux from ALLL00179 after MN treatment of full thickness Yucatan pig skin was 63.2±11.4 nmol/cm^2/h, resulting in a 12.2 fold enhancement of flux.

[6] = cited from earlier work
[7] = used in conjunction with microneedles

| Structure (SMILES) | composition of the donor solutions at the end of the study [1] | purity level after 72 hr [2] | initial purity (composition of ALL00179 sample) [2] | flux through intact skin [3] | Percent Prodrug and CBD at time (min) 0* [4] | Percent Prodrug and CBD at time (min) 5 [4] | Percent Prodrug and CBD at time (min) 10 [4] | Percent Prodrug and CBD at time (min) 20 [4] | Percent Prodrug and CBD at time (min) 30 [4] | Percent Prodrug and CBD at time (min) 60 [4] | Percent Prodrug and CBD at time (min) 120 [4] | flux [5] | drug detected in the skin [3] | naltrexone levels ([6]; 16% naltrexone hydrochloride gel, 6 healthy human volunteers, microneedle pretreatment) | duration of steady state naltrexone concentrations [6, 7] | time to steady state naltrexone concentrations [6, 7] |
| --- | --- | --- | --- | --- | --- | --- | --- | --- | --- | --- | --- | --- | --- | --- | --- | --- |
| C=C(C)[C@@H]1CCC(C)=C[C@H]1c1c(OC(=O)C[N+](C)(C)C)cc(CCCCC)cc1OC(=O)C[N+](C)(C)C.[Cl-].[Cl-] [ALL00179] | 84.3±2.6% | 86.8% | 94.7% | no flux | 9.2% | 3.0% | 0.0% | 0.0% | 0.0% | 0.0% | 0.0% |  |  |  |  |  |
| C=C(C)[C@@H]1CCC(C)=C[C@H]1c1c(O)cc(CCCCC)cc1OC(=O)C[N+](C)(C)C [ALL00180] | 15.7±2.6% | 13.2% | 5.3% |  | 86.1% | 66.8% | 44.9% | 22.9% | 10.6% | 2.4% | 0.0% |  |  |  |  |  |
| C=C(C)[C@@H]1CCC(C)=C[C@H]1c1c(O)cc(CCCCC)cc1O [Cannabidiol] | 0% | 0% | 0% | no flux | 4.7% | 30.2% | 55.1% | 77.1% | 89.4% | 97.6% | 100% | 5.2 nmol/cm^2/h | none |  |  |  |
| O=C1CC[C@@]2(O)[C@H]3Cc4ccc(O)c5c4[C@@]2(CCN3CC2CC2)[C@H]1O5 [naltrexone] |  |  |  |  |  |  |  |  |  |  |  |  |  | 2.5 ± 1.1 ng/mL | 48 h | within two hours |
